Data on 69 compounds can be found in paper PMC7802075 (ACS Infectious Diseases, 2020).

SMILES strings stand for the structures.

The first assay addresses T1, LmjIPCS (inositol phosphorylceramide synthase from L. major) (Leishmania major, UniProt E9AFX2).
T1 sequence (E9AFX2 1-338): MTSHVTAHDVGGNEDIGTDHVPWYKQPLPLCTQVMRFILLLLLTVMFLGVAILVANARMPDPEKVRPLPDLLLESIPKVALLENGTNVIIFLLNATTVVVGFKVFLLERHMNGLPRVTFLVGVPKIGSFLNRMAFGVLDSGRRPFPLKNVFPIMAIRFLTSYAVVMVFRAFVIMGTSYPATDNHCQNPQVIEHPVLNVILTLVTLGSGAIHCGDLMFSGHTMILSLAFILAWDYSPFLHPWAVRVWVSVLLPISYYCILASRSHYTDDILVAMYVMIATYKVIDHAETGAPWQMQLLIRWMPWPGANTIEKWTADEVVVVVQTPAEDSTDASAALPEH
The assay can be described thus: biochemical. Type of assay: biochemical. Also on record: inhibition: dose or concentration left out as unconfirmed.
Settings: not given
With `CC(C)=CCC[C@]1(C)C=Cc2c(O)c3c(c(CC=C(C)C)c2O1)O[C@]12C(=C[C@@H]4C[C@H]1C(C)(C)O[C@@]2(C/C=C(/C)C(=O)O)C4=O)C3=O` [GAMBOGIC ACID], the “20mM inhibition LmjIPCS” value was 58%.
For the compound `Cc1cc2c(C(C)C)c(O)c(O)c(C=O)c2c(O)c1-c1c(C)cc2c(C(C)C)c(O)c(O)c(C=O)c2c1O` [GOSSYPOL], the “20mM inhibition LmjIPCS” value turned out to be 37%.
Still for that read-out and setting: the value for `N=C(N)N/N=C/c1c(Cl)cccc1Cl` [GUANABENZ ACETATE] was 55%.
The same measure, in the same setting: the value for `N=C(N)N` [GUANIDINE] was 20%.
Turning to `COc1ccc2c3c([nH]c2c1)C(C)=NCC3` [HARMALINE], the “20mM inhibition LmjIPCS” value turned out to be 54%.
Consider `Oc1c(Cl)cc(Cl)c(Cl)c1Cc1c(O)c(Cl)cc(Cl)c1Cl` [HEXACHLOROPHENE], for which the “20mM inhibition LmjIPCS” value was determined as 41%.
Regarding `CCN(CC)CCNc1ccc(CO)c2sc3ccccc3c(=O)c12` [HYCANTHONE], the “20mM inhibition LmjIPCS” value came out at 46%.
In the case of `CCCCCC(=O)O[C@]1(C(C)=O)CC[C@H]2[C@@H]3CCC4=CC(=O)CC[C@]4(C)[C@H]3CC[C@@]21C` [HYDROXYPROGESTERONE CAPROATE], the “20mM inhibition LmjIPCS” value was 57%.
Same read-out and setting: the value for `Nc1c2c(nc3ccccc13)CCCC2O.O=C(O)/C=C\C(=O)O` (stereo not drawn) [HYDROXYTACRINE MALEATE] was 11%.
Same read-out and setting: in the case of `OCCOCCN1CCN(C(c2ccccc2)c2ccc(Cl)cc2)CC1` (stereo not drawn) [HYDROXYZINE PAMOATE] it was 45%; in that of `CCC(Cc1c(I)cc(I)c(N)c1I)C(=O)O` (stereo not drawn) [IOPANIC ACID], 7.62%.
Same read-out and setting: the value for `COC(=O)[C@H]1[C@H]2C[C@H]3c4[nH]c5cc(OC)ccc5c4CCN3C[C@H]2C[C@@H](OC(=O)c2cc(OC)c(OC)c(OC)c2)[C@@H]1OC` [ISORESERPINE] was 47%.

The assay is the same for the next values; noted with them: NINDS set screen, compound at 20mM (so in the source).
With `C[C@]12CCC(=O)C=C1CC[C@@H]1[C@@H]2[C@@H](O)C[C@@]2(C)[C@H]1CC[C@]2(O)C(=O)COC(=O)CCC(=O)O` [HYDROCORTISONE HEMISUCCINATE], the “20mM inhibition LmjIPCS” value is listed as 18%.

Still in this assay, the particulars now being: NINDS set screen, single concentration printed as 20mM.
Turning to `CC(=O)O[C@@H]1C[C@H]2C(C)(C)C(=O)C=C[C@]2(C)[C@H]2CC[C@@]3(C)[C@H](c4ccoc4)OC(=O)[C@H]4O[C@]43[C@@]21C` [GEDUNIN], the “20mM inhibition LmjIPCS” value was 48%.
Still for that read-out and setting: the value for `CN(C)c1ccc(C(=C2C=CC(=[N+](C)C)C=C2)c2ccc(N(C)C)cc2)cc1` [GENTIAN VIOLET] was 64%; that for `CC[C@H](c1ccc(O)cc1)[C@@H](CC)c1ccc(O)cc1` [HEXESTROL] was 34%; that for `CCCCCCc1ccc(O)cc1O` [HEXYLRESORCINOL] was 47%.
For `CC[C@H]1CN2CC[C@H]1C[C@@H]2[C@@H](O)c1ccnc2ccc(OC)cc12` [HYDROQUINIDINE], the “20mM inhibition LmjIPCS” value came out at 58%.

Staying with this assay, now noted: NINDS set screen; read-out: inhibition LmjIPCS.
As to `O=C(O)C1=CCCNC1` [GUVACINE], the inhibition was 14%.
Regarding `CC1=NCCc2c1[nH]c1cc(O)ccc21` [HARMALOL], the inhibition worked out at 17%.
Same read-out and setting: in the case of `CCN(CCO)CCCC(C)Nc1ccnc2cc(Cl)ccc12` (stereo not drawn) [HYDROXYCHLOROQUINE] it was 31%; in that of `Oc1c(I)cc(I)c2cccnc12` [IODOQUINOL], 23%.
Regarding `CC(C)NNC(=O)c1ccncc1` [IPRONIAZID], the inhibition came to 31%.

Staying with this assay, now noted: read-out: 20mM inhibition LmjIPCS.
As to `Cc1ccc(C)c(OCCCC(C)(C)C(=O)O)c1` [GEMFIBROZIL], the inhibition at 20000 µM was -1.79%.
Turning to `CO/N=C1\CN(c2nc3c(cc2F)c(=O)c(C(=O)O)cn3C2CC2)CC1CN` (stereo not drawn) [GEMIFLOXACIN], the inhibition at 20000 µM amounted to 25%.
Consider `CN[C@@H]1[C@@H](O)[C@@H](O[C@@H]2[C@@H](O)[C@H](O[C@H]3O[C@H]([C@@H](C)O)[C@@H](O)[C@H](O)[C@H]3N)[C@@H](N)C[C@H]2N)OC[C@]1(C)O` [GENETICIN], for which the inhibition at 20000 µM stood at 13%.
The same measure, in the same setting: the value for `O=C(OCC(O)CO)c1ccccc1Nc1ccnc2cc(Cl)ccc12` (stereo not drawn) [GLAFENINE] was -16%.
As to `Cc1ccc(S(=O)(=O)NC(=O)NN2CC3CCCC3C2)cc1` (stereo not drawn) [GLICLAZIDE], the inhibition at 20000 µM turned out to be 14%.
Same read-out and setting: the value for `O=C1O[C@H](CO)[C@@H](O)[C@H](O)[C@H]1O` [GLUCONOLACTONE] was 0.589%.
`N[C@H]1C(O)O[C@H](CO)[C@@H](O)[C@@H]1O` (stereo partly drawn) [GLUCOSAMINE]: the inhibition at 20000 µM amounted to 10%.
On to `N[C@@H](CCC(=O)N[C@@H](CS)C(=O)NCC(=O)O)C(=O)O` [GLUTATHIONE], for which the inhibition at 20000 µM is -0.349%.
Same read-out and setting: the value for `COc1ccccc1OCC(O)CO` (stereo not drawn) [GUAIFENESIN] was -0.357%; that for `CC1(C)O[C@@H]2C[C@H]3[C@@H]4CCC5=CC(=O)CC[C@]5(C)[C@@]4(F)[C@@H](O)C[C@]3(C)[C@]2(C(=O)CCl)O1` [HALCINONIDE] was 20%.
Still for that read-out and setting: the value for `COc1ccc2c(c1)[nH]c1c(C)nccc12` [HARMINE] was 32%; that for `Cc1[nH]ccc2c1[nH]c1cc(=O)ccc12` [HARMOL] was 15%.
On to `C[N+](C)(C)CCCCCC[N+](C)(C)C` [HEXAMETHONIUM], for which the inhibition at 20000 µM was -4%.
On the same count and under the same terms, the value for `NCCc1c[nH]cn1` [HISTAMINE] was 4.39%; that for `C/C=C1\[C@H]2C=C(C)C[C@]1(N)c1ccc(=O)[nH]c1C2` [HUPERZINE A] was 24%; that for `NNc1nncc2ccccc12` [HYDRALAZINE] was 15%.
Same read-out and setting: in the case of `CC(=O)OCC(=O)[C@@]1(O)CC[C@H]2[C@@H]3CCC4=CC(=O)CC[C@]4(C)[C@H]3[C@@H](O)C[C@@]21C` [HYDROCORTISONE ACETATE] it was 7%; in that of `CCCC(=O)O[C@]1(C(=O)CO)CC[C@H]2[C@@H]3CCC4=CC(=O)CC[C@]4(C)[C@H]3[C@@H](O)C[C@@]21C` [HYDROCORTISONE BUTYRATE], 5.61%; in that of `NS(=O)(=O)c1cc2c(cc1C(F)(F)F)NCNS2(=O)=O` [HYDROFLUMETHIAZIDE], 9%.
Same read-out and setting: the value for `Oc1ccc(O)cc1` [HYDROQUINONE] was -2.33%; that for `CN1[C@@H]2CC[C@H]1C[C@@H](OC(=O)[C@H](CO)c1ccccc1)C2` [HYOSCYAMINE] was 4%.
Regarding `COc1ccc(-c2oc3c(CC=C(C)C)c(O[C@@H]4O[C@H](CO)[C@@H](O)[C@H](O)[C@H]4O)cc(O)c3c(=O)c2O[C@@H]2O[C@@H](C)[C@H](O)[C@@H](O)[C@H]2O)cc1` [ICARIIN], the inhibition at 20000 µM turned out to be 10%.
Same read-out and setting: in the case of `O=[N+]([O-])NC1=NCCN1Cc1ccc(Cl)nc1` [IMIDACLOPRID] it was 8%; in that of `OCc1c[nH]c2ccccc12` [INDOLE-3-CARBINOL], 11%.
Still for that read-out and setting: in the case of `CC(C(=O)O)c1ccc(N2Cc3ccccc3C2=O)cc1` (stereo not drawn) [INDOPROFEN] it was -1.7%; in that of `O=C(CCCCC(=O)Nc1c(I)cc(I)c(C(=O)O)c1I)Nc1c(I)cc(I)c(C(=O)O)c1I` [IODIPAMIDE], 7%; in that of `CC(C)[N+]1(C)[C@@H]2CC[C@H]1C[C@@H](OC(=O)C(CO)c1ccccc1)C2` (stereo partly drawn) [IPRATROPIUM BROMIDE], -7%.

Still in this assay, the particulars now being: read-out: inhibition LmjIPCS.
As for `CNC(C)C1CCC(N)C(OC2C(N)CC(N)C(OC3OCC(C)(O)C(NC)C3O)C2O)O1` (stereo not drawn) [GENTAMICIN], the inhibition was -1%.
Still for that read-out and setting: the value for `COc1ccc(Cl)cc1C(=O)NCCc1ccc(S(=O)(=O)NC(=O)NC2CCCCC2)cc1` [GLYBURIDE] was 13%; that for `COC1=CC(=O)C[C@@H](C)[C@]12Oc1c(Cl)c(OC)cc(OC)c1C2=O` [GRISEOFULVIN] was 28%.
On to `NS(=O)(=O)c1cc2c(cc1Cl)NCNS2(=O)=O` [HYDROCHLOROTHIAZIDE], for which the inhibition came to 13%.
Still for that read-out and setting: in the case of `C[C@]12CCC(=O)C=C1CC[C@@H]1[C@@H]2[C@@H](O)C[C@@]2(C)[C@H]1CC[C@]2(O)C(=O)CO` [HYDROCORTISONE] it was 13%.
The same measure, in the same setting: in the case of `CC(C)Cc1ccc(C(C)C(=O)O)cc1` (stereo not drawn) [IBUPROFEN] it was 2.58%; in that of `CC1Cc2ccccc2N1NC(=O)c1ccc(Cl)c(S(N)(=O)=O)c1` (stereo not drawn) [INDAPAMIDE], 5%; in that of `COc1ccc2c(c1)c(CC(=O)O)c(C)n2C(=O)c1ccc(Cl)cc1` [INDOMETHACIN], -3.42%.
Still for that read-out and setting: the value for `CCCCC1=NC2(CCCC2)C(=O)N1Cc1ccc(-c2ccccc2-c2nnn[nH]2)cc1` [IRBESARTAN] was 1%; that for `CC(C)Cn1c(=O)n(C)c(=O)c2[nH]cnc21` [ISOBUTYLMETHYLXANTHINE] was 14%; that for `O=C(/C=C/c1ccc(O)cc1)c1ccc(O)cc1O` [ISOLIQUIRITIGENIN] was 11%.
Regarding `CC(C)[N+](C)(CCC(C(N)=O)(c1ccccc1)c1ccccc1)C(C)C` [ISOPROPAMIDE], the inhibition was 11%.
For `CC(C)NCC(O)c1ccc(O)c(O)c1` (stereo not drawn) [ISOPROTERENOL], the inhibition was determined as 11%.

The same assay, now with this note: screening of NINDS set, sheet Screen 1; read-out: inhibition LmjIPCS.
On to `COc1c(N2CCNC(C)C2)c(F)cc2c(=O)c(C(=O)O)cn(C3CC3)c12` (stereo not drawn) [GATIFLOXACIN], for which the inhibition came to 2.29%.
Regarding `O=C(O)c1ccc(S(=O)(=O)N(Cl)Cl)cc1` [HALAZONE], the inhibition is 10%.
For `CC1(C)S[C@@H]2[C@H](N3C(=O)[C@@H](c4ccccc4)NC3(C)C)C(=O)N2[C@H]1C(=O)O` [HETACILLIN], the inhibition amounted to 2%.
Still for that read-out and setting: in the case of `O=C(O)c1cc2ccccc2[nH]1` [INDOLE-2-CARBOXYLIC ACID] it was 8%.
The same measure, in the same setting: the value for `NNC(=O)c1ccncc1` [ISONIAZID] was 9%.

Still in this assay, the particulars now being: single concentration 20mM as printed; screening of NINDS set, sheet Screen 1.
In the case of `NC(=O)NO` [HYDROXYUREA], the “20mM inhibition LmjIPCS” value amounted to 11%.
